What was measured:
HSC-2 = assay: cells; type: functional; conditions: Homo sapiens, time 48 hrs
Description: Cytotoxicity against human HSC-2 cells assessed as cell growth inhibition measured after 48 hrs by MTT assay

HSC-4 = assay: cells; type: functional; conditions: Homo sapiens, time 48 hrs
Description: Cytotoxicity against human HSC-4 cells assessed as cell growth inhibition measured after 48 hrs by MTT assay

HSC-3 = assay: cells; type: functional; conditions: Homo sapiens, time 48 hrs
Description: Cytotoxicity against human HSC-3 cells assessed as cell growth inhibition measured after 48 hrs by MTT assay

Ca9-22 = assay: cells; type: functional; conditions: Homo sapiens, time 48 hrs
Description: Cytotoxicity against human Ca9-22 cells assessed as cell growth inhibition measured after 48 hrs by MTT assay

Carbonic anhydrase 12 [1] = target: T1, Carbonic anhydrase 12 (Homo sapiens, UniProt O43570)
Carbonic anhydrase 1 [2] = target: T2, Carbonic anhydrase 1 (Homo sapiens, UniProt P00915)
Target sequence in this assay (P00915 whole entry): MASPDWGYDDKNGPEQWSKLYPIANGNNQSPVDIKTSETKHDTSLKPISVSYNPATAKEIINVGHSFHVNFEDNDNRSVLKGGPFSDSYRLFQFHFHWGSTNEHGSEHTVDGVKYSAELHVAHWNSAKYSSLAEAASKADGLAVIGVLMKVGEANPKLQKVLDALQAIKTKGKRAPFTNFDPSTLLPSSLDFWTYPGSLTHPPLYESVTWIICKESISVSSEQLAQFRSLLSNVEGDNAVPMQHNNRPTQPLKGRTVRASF

Carbonic anhydrase 12 [3] = target: T1, Carbonic anhydrase 12; remark: listed apart in the source
Carbonic anhydrase 2 [4] = target: T3, Carbonic anhydrase 2 (Homo sapiens, UniProt P00918)
Carbonic anhydrase 9 [5] = target: T4, Carbonic anhydrase 9 (Homo sapiens, UniProt Q16790)
Carbonic anhydrase 12 [6] = target: T1, Carbonic anhydrase 12; conditions: time 6.0 hrs
Carbonic anhydrase 1 [7] = target: T2, Carbonic anhydrase 1; remark: listed apart in the source
Target sequence in this assay (P00915 whole entry): as above

Carbonic anhydrase 7 = Carbonic anhydrase 7 (Homo sapiens, UniProt P43166)
Carbonic anhydrase 2 [8] = target: T3, Carbonic anhydrase 2; remark: listed apart in the source
Carbonic anhydrase 9 [9] = target: T4, Carbonic anhydrase 9; remark: listed apart in the source
Carbonic anhydrase 4 = Carbonic anhydrase 4 (Homo sapiens, UniProt P22748)
Carbonic anhydrase 2 [10] = target: T3, Carbonic anhydrase 2; remark: listed apart in the source
Carbonic anhydrase 12 [11] = target: T1, Carbonic anhydrase 12; remark: listed apart in the source
Carbonic anhydrase 1 [12] = target: T2, Carbonic anhydrase 1; remark: listed apart in the source
Target sequence in this assay (P00915 whole entry): as above

Carbonic anhydrase 2 [13] = target: T3, Carbonic anhydrase 2; remark: listed apart in the source
HT-1080 = assay: cells; type: functional, cell-based; conditions: Homo sapiens, HT-1080, 48 h
Description: Cytotoxicity against human HT-1080 cells assessed as cell growth inhibition measured after 48 hrs by MTT assay

SH-SY5Y = assay: cells; type: functional, cell-based; conditions: Homo sapiens, 48 h
Description: Cytotoxicity against human SH-SY5Y cells assessed as cell growth inhibition measured after 48 hrs by MTT assay

MCF7 = assay: cells; type: functional, cell-based; conditions: Homo sapiens, MCF7, 48 h
Description: Cytotoxicity against human MCF7 cells assessed as cell growth inhibition measured after 48 hrs by MTT assay

Carbonic anhydrase 9 [14] = target: T4, Carbonic anhydrase 9; remark: listed apart in the source
Carbonic anhydrase 1 [15] = target: T2, Carbonic anhydrase 1; remark: listed apart in the source
Target sequence in this assay (P00915 2-261 limits assumed): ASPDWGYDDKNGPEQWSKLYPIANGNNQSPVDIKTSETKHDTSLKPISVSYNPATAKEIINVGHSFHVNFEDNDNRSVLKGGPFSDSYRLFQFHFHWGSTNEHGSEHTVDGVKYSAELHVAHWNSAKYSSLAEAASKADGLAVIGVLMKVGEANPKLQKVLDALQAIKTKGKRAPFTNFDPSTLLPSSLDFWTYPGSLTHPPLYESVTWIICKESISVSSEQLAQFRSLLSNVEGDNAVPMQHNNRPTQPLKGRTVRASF

in vitro = conditions: human, corneal epithelial cell
Description: Cytotoxicity against human Corneal epithelial cell assessed as cell growth inhibition at 1 % measured after 96 hrs by MTT assay relative to control

Carbonic anhydrase 1 [16] = target: T2, Carbonic anhydrase 1; remark: listed apart in the source
Target sequence in this assay (P00915 whole entry): as the sequence (P00915 whole entry) above

Carbonic anhydrase 2 [17] = target: T3, Carbonic anhydrase 2; remark: listed apart in the source

Carbonic anhydrase 4, sequence (P22748 whole entry): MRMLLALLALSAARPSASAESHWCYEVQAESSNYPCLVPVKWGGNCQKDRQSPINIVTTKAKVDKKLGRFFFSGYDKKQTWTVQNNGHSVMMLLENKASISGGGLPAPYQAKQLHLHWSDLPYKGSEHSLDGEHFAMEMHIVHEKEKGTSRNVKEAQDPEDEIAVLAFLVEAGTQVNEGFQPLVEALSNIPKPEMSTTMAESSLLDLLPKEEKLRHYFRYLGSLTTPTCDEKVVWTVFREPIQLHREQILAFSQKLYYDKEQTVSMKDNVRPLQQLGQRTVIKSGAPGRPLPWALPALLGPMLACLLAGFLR
T1 sequence (O43570 whole entry): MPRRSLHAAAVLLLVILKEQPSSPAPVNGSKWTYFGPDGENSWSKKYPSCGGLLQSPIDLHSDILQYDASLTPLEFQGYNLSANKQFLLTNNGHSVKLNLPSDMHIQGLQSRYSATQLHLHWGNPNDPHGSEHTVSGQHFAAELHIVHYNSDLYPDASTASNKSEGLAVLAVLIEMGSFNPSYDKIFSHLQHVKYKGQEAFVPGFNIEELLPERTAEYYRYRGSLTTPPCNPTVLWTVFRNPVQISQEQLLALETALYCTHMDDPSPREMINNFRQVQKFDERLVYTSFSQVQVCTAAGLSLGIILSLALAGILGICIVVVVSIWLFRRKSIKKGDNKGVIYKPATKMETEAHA
Carbonic anhydrase 7, sequence (P43166 whole entry): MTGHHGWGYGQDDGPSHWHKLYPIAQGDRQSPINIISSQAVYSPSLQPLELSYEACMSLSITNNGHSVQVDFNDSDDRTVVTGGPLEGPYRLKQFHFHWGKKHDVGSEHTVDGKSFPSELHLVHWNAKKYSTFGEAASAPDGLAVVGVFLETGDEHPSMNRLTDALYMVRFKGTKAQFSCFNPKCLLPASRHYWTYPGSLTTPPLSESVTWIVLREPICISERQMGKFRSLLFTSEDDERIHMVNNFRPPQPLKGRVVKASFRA

## COc1ccc(C2CC(c3ccc(Br)cc3)=NN2c2ccc(S(N)(=O)=O)cc2)c(OC)c1 (stereo unspecified)
HSC-2
  CC50: 15000 nM
HSC-4
  CC50: 15000 nM
HSC-3
  CC50: 15000 nM
Ca9-22
  CC50: 15000 nM

## COc1ccc(C2CC(c3ccccc3)=NN2c2ccc(S(N)(=O)=O)cc2)cc1OC (stereo unspecified)
HSC-2
  CC50: 15000 nM
HSC-4
  CC50: 15000 nM
HSC-3
  CC50: 15000 nM
Ca9-22
  CC50: 15000 nM

## O=C(O)CN1C(=O)S/C(=C/c2ccc(Br)cc2)C1=O
Carbonic anhydrase 12 [1]
  Kis: 0.3 µM
Carbonic anhydrase 1 [2]
  Ki: > 100000 nM

## NS(=O)(=O)c1ccc(N/N=C2\C(=O)Nc3ccccc32)cc1
Carbonic anhydrase 12 [3]
  Ki: 34.3 nM
Carbonic anhydrase 2 [4]
  Ki: 6.5 nM
Carbonic anhydrase 9 [5]
  Ki: 21.4 nM
Carbonic anhydrase 1 [2]
  Ki: 90.2 nM

## O=[N+]([O-])c1ccc2c(c1)C=CCS(=O)(=O)O2
Carbonic anhydrase 12 [6]
  Kis: 0.64 µM

## COc1cc([SeH])cc(OC)c1OC
Carbonic anhydrase 1 [7]
  Ki: > 50000 nM
Carbonic anhydrase 7
  Ki: > 50000 nM
Carbonic anhydrase 2 [8]
  Ki: > 50000 nM
Carbonic anhydrase 9 [9]
  Ki: 180 nM

## O=C(O)CN1C(=O)S/C(=C/c2ccc(Cl)cc2)C1=O
Carbonic anhydrase 12 [1]
  Kis: 0.3 µM
Carbonic anhydrase 9 [5]
  Ki: 3100 nM
Carbonic anhydrase 1 [2]
  Ki: > 100000 nM

## NS(=O)(=O)c1ccc(N/C=C/C(=O)c2ccc(Br)cc2)cc1
Carbonic anhydrase 1 [7]
  Ki: 8500 nM
Carbonic anhydrase 4
  Ki: 6.5 nM
Carbonic anhydrase 2 [8]
  Ki: 0.48 nM
Carbonic anhydrase 9 [9]
  Ki: 0.21 nM

## O=C1/C(=C\c2ccc(O)c(CN3CCN(c4ccccc4)CC3)c2)Cc2ccccc21
Carbonic anhydrase 2 [10]
  Ki: 51.1 nM

## CS(=O)(=O)Cc1c(Br)c(O)c(O)c(Br)c1Br
Carbonic anhydrase 2 [10]
  Ki: 42.8 nM

## COc1ccc(C2CC(c3ccccc3)=NN2c2ccc(S(N)(=O)=O)cc2)c(OC)c1 (stereo unspecified)
HSC-2
  CC50: 15000 nM
HSC-4
  CC50: 15000 nM
HSC-3
  CC50: 15000 nM
Ca9-22
  CC50: 15000 nM

## O=c1c2ccccc2nc(SCCN2CCCCC2)n1CCc1ccccc1
Carbonic anhydrase 1 [7]
  Ki: 229 nM
Carbonic anhydrase 12 [11]
  Ki: 17.2 nM
Carbonic anhydrase 2 [8]
  Ki: 14.2 nM
Carbonic anhydrase 9 [9]
  Ki: 19.3 nM

## O=C1/C(=C\c2ccc(O)c(CN3CCN(c4ccc(F)cc4)CC3)c2)Cc2ccccc21
Carbonic anhydrase 2 [10]
  Ki: 51.1 nM

## COc1ccc(C2CC(c3ccc(Cl)cc3)=NN2c2ccc(S(N)(=O)=O)cc2)c(OC)c1 (stereo unspecified)
HSC-2
  CC50: 15000 nM
HSC-4
  CC50: 15000 nM
HSC-3
  CC50: 15000 nM
Ca9-22
  CC50: 15000 nM

## COc1ccc(C2CC(c3ccc(F)cc3)=NN2c2ccc(S(N)(=O)=O)cc2)c(OC)c1 (stereo unspecified)
HSC-2
  CC50: 15000 nM
HSC-4
  CC50: 15000 nM
HSC-3
  CC50: 15000 nM
Ca9-22
  CC50: 15000 nM

## COc1ccc(C2CC(c3ccc(F)cc3)=NN2c2ccc(S(N)(=O)=O)cc2)cc1OC (stereo unspecified)
HSC-2
  CC50: 15000 nM
HSC-4
  CC50: 15000 nM
HSC-3
  CC50: 15000 nM
Ca9-22
  CC50: 15000 nM

## NS(=O)(=O)c1ccc(N/C=C/C(=O)c2ccc([N+](=O)[O-])cc2)cc1
Carbonic anhydrase 1 [7]
  Ki: > 10000 nM
Carbonic anhydrase 4
  Ki: 6.5 nM
Carbonic anhydrase 9 [9]
  Ki: 0.21 nM

## O=C(O)CN1C(=O)S/C(=C/c2ccccc2)C1=O
Carbonic anhydrase 12 [1]
  Kis: 0.3 µM
Carbonic anhydrase 1 [2]
  Ki: > 100000 nM

## Cc1ccc(-n2nc(-c3ccccc3)c(/N=N/c3ccc(Br)cc3)c2-c2ccccc2)cc1C
Carbonic anhydrase 1 [12]
  Ki: 1.06 nM
Carbonic anhydrase 2 [13]
  Ki: 0.68 nM

## NS(=O)(=O)c1ccc(N/C=C/C(=O)c2ccc3ccccc3c2)cc1
Carbonic anhydrase 1 [7]
  Ki: > 10000 nM
Carbonic anhydrase 4
  Ki: 6.5 nM
Carbonic anhydrase 2 [8]
  Ki: 0.48 nM
Carbonic anhydrase 9 [9]
  Ki: 0.21 nM

## O=S1(=O)C=Cc2cc(-n3cc(-c4ccc(Cl)cc4)nn3)ccc2O1
Carbonic anhydrase 12 [3]
  Ki: 5.4 nM
HT-1080
  IC50: 7900 nM
SH-SY5Y
  IC50: 18400 nM
Carbonic anhydrase 9 [5]
  Ki: 6.9 nM
MCF7
  IC50: 1800 nM

## Cc1ccc2c(c1)C(=O)N(NC(=O)c1ccc(S(N)(=O)=O)cc1)C2=O
Carbonic anhydrase 9 [14]
  Kis: 3 nM
Carbonic anhydrase 1 [15]
  Kis: 84.3 nM

## NS(=O)(=O)c1ccc(NCC(=O)N/N=C2\C(=O)N(Cc3ccccc3)c3ccccc32)cc1
Carbonic anhydrase 12 [3]
  Ki: 34.3 nM
Carbonic anhydrase 2 [4]
  Ki: 3 nM
Carbonic anhydrase 9 [5]
  Ki: 16.4 nM

## O=[N+]([O-])c1ccccc1-n1nc(-c2ccccc2)c(/N=N/c2ccc(Br)cc2)c1-c1ccccc1
Carbonic anhydrase 1 [12]
  Ki: 1.06 nM
Carbonic anhydrase 2 [13]
  Ki: 0.68 nM

## Cc1ccc(/C=C2/SC(=O)N(CC(=O)O)C2=O)cc1
Carbonic anhydrase 12 [1]
  Kis: 0.3 µM
Carbonic anhydrase 9 [5]
  Ki: > 100000 nM
Carbonic anhydrase 1 [2]
  Ki: > 100000 nM

## O=C(O)CN1C(=O)S/C(=C/c2ccccc2Cl)C1=O
Carbonic anhydrase 12 [1]
  Kis: 0.3 µM
Carbonic anhydrase 1 [2]
  Ki: > 100000 nM

## NS(=O)(=O)c1ccc(C(=O)N[C@@H]2OC[C@@H](O)[C@H](O)[C@H]2O)cc1
In vitro
  inhibition at 96 h, 1 %: 74%

## O=S1(=O)C=Cc2cc(-c3nnnn3-c3ccc(F)c(Cl)c3)ccc2O1
HT-1080
  IC50: 7900 nM
SH-SY5Y
  IC50: 18400 nM
MCF7
  IC50: 1800 nM

## Brc1ccc(/N=N/c2c(-c3ccccc3)nn(-c3ccccc3)c2-c2ccccc2)cc1
Carbonic anhydrase 1 [12]
  Ki: 1.06 nM
Carbonic anhydrase 2 [13]
  Ki: 0.68 nM

## COc1ccccc1N1CCN(Cc2cc(/C=C3/Cc4ccccc4C3=O)ccc2O)CC1
Carbonic anhydrase 2 [10]
  Ki: 51.1 nM

## C[C@@H]1O[C@H](NC(=O)c2ccc(S(N)(=O)=O)cc2)[C@H](O)[C@H](O)[C@H]1O
Carbonic anhydrase 1 [16]
  IC50: 1800 nM
Carbonic anhydrase 2 [17]
  Ki: 0.009 nM
